Measurements from patent US4863944A, “Dopamine-β-hydroxylase inhibitors” (SmithKline Beckman Corporation, priority 1988, dated 1989).
Structures can show the parent of a compound that is named as a salt.

What was measured:
DBH [1] = details: cited from earlier work; for DBH inhibition / mode of DBH inhibition: result in words
[2] = target: T1, dopamine-β-hydroxylase (DBH) (Bos taurus, UniProt P15101); test: biochemical; details: in vitro; tyramine to octopamine; absorbance at 330 nm; read-out: IC50 (molar concentration of compound at which DBH activity was halved)
T1 sequence (P15101 1-610): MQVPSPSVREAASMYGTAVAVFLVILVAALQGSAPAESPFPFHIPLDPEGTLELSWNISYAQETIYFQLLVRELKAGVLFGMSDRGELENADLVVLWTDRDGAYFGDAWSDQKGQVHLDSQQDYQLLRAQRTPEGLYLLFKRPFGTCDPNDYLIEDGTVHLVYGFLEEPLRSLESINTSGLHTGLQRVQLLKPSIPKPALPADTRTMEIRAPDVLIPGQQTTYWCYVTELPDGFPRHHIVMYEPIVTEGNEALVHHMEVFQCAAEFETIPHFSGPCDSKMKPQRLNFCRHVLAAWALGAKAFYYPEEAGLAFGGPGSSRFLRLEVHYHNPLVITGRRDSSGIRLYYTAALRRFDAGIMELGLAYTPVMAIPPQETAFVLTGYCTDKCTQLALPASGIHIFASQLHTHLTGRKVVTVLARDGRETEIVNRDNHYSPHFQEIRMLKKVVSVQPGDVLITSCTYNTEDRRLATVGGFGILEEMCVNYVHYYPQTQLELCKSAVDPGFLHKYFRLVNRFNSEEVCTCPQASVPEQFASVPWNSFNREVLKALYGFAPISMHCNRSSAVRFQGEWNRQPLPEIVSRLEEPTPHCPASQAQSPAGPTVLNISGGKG
Description: Octopamine was assayed following sodium periodate oxidation to p-hydroxybenzaldehyde by measuring spectrophotometric absorbance at 330 nm. […] Melting points (mp) are given in °C.

[3] = test system: spontaneously hypertensive rats; test: in vivo activity in spontaneously hypertensive rats: electrolyte excretion, urine volume, systolic blood pressure, heart rate; set-up: species or system rats (Okamoto-Aoki strain spontaneously hypertensive); details: for Heart Rate 1st dose / Systolic Blood Pressure 1st dose: after 1st dose; for Heart Rate 1st dose / Systolic Blood Pressure 1st dose / Heart Rate 2nd dose / Systolic Blood Pressure 2nd dose: tail-cuff; for Heart Rate 2nd dose / Systolic Blood Pressure 2nd dose: two hours after 2nd dose; for Electrolytes Excreted K^+ / Electrolytes Excreted Na^+ / Urine Volume: urine collected for three hours
From the text: The following procedure was used to test, for in vivo activity, compounds which can be used to inhibit DBH activity in mammals, including certain illustrative compounds of the invention. The compounds wherein R is --CO2 H or --CH2 NHC6 H5, X is --H, Y is --H and n is 1 are not compounds of the invention but can be used in the method of the invention.
Male, Okamoto-Aoki strain spontaneously hypertensive rats, aged 16-20 weeks, were used for testing. The afternoon before testing, the animals were fasted and the following morning the first dose of the test compound was administered, p.o., along with a 25 ml/kg load of normal saline. The animals were then placed in metabolism cages, three per cage, and urine was collected for three hours and subsequently analyzed for sodium, potassium, and creatinine. Indirect systolic blood pressure and heart rate were measured via a tail-cuff method and the animals received an identical second does of the test compound. Two hours after the second dose, the systolic blood pressure and heart rate were again determined. Drugs were administered as a solution or suspension in normal saline with 0.02% ascorbic acid.
Three rats weighing 270-320 g were used. Each received two intraperitoneal injections, in a 24 hour period, of a dose volume of 5 mL and a dose concentration of 50 mg/kg or 25 mg/kg, in 0.9% NaCl, following a 24 hour pretreatment dose. Averaged results with control animals, three per experiment, are reported in parentheses below results of test animals.

DBH [4] = details: treated patients; Friedman et al.; significance uncertain; cited from earlier work
[5] = at certain concentrations; Ehrreich et al.; cited from earlier work
[6] = result in words; cited from earlier work
[7] = result in words; Teresawa et al.; cited from earlier work

O=C(O)c1ccc(Cc2ccc(O)cc2)cn1 [phenopicolinic acid]
DBH inhibitory activity relative to fusaric acid (DBH [1]; Runti et al.): twice the inhibitory activity of fusaric acid
DBH inhibition (DBH [1]): can inhibit DBH

COc1ccc(CCCn2ccnc2C(=O)O)cc1 [R = CO2 H.HCl, Y = OCH3, X = H, n = 3, 1-[3-(4-methoxyphenyl)propyl]imidazole-2-carboxylic acid hydrochloride]
IC50 [2]: 95 µM

NOCc1ccccc1 [Benzyloxyamine, benzyloxyamine]
mode of DBH inhibition (DBH [1]): apparently act as competitive inhibitors

O=C(O)c1nccn1Cc1ccc(O)cc1 [R = CO2 H.HCl, Y = OH, X = H, n = 1, hydrochloride hydrate]
IC50 [2]: 90 µM

O=C(O)c1nccn1CCCc1ccc(O)cc1 [R = CO2 H.1/2 H2 O, Y = OH, X = H, n = 3, 1-[3-(4-hydroxyphenyl)propyl]imidazole-2-carboxylic acid, hemihydrate]
Na^+ /K^+ ratio ([3]; dose = 25 mg/kg): 1.313
Heart Rate 1st dose ([3]; dose = 25 mg/kg): 400 beats/min
Systolic Blood Pressure 1st dose ([3]; dose = 25 mg/kg): 176 mmHg
Heart Rate 2nd dose ([3]; dose = 25 mg/kg): 440 beats/min
Systolic Blood Pressure 2nd dose ([3]; dose = 25 mg/kg): 173 mmHg
Electrolytes Excreted K^+ ([3]; dose = 25 mg/kg): 152.18 μEq/rat
Electrolytes Excreted Na^+ ([3]; dose = 25 mg/kg): 199.74 μEq/rat
Urine Volume ([3]; dose = 25 mg/kg): 6 ml/rat
in vivo activity as diuretic ([3]; result in words): significant diuretic activity
IC50 [2]: 70 µM

CC(C)NCC(O)COc1cccc2ccccc12 (racemic) [propanolanol]
DBH levels (DBH [4]): not

NCc1nccn1Cc1ccccc1 [R = CH2 NH2.2HCl, Y = H, X = H, n = 1, 1-benzyl-2-aminomethyl imidazole dihydrochloride]
IC50 [2]: 240 µM

CN(C)C(=S)SCc1ccc(C(=O)O)nc1 [5-(dimethyldithiocarbamoyl)methyl picolinic acid]
DBH inhibition (DBH [1]): DBH inhibitors

O=C(O)c1ccc(CCC(Br)CBr)cn1 (centres unmarked) [5-(3,4-dibromo)butyl picolinic acid]
DBH inhibition (DBH [1]): DBH inhibitors

O=C(O)c1nccn1Cc1ccccc1 [R = CO2 H.HCl, Y = H, X = H, n = 1]
Na^+ /K^+ ratio ([3]; dose = 50 mg/kg): 1.270
Heart Rate 1st dose ([3]; dose = 50 mg/kg): 440 beats/min
Systolic Blood Pressure 1st dose ([3]; dose = 50 mg/kg): 211 mmHg
Heart Rate 2nd dose ([3]; dose = 50 mg/kg): 480 beats/min
Systolic Blood Pressure 2nd dose ([3]; dose = 50 mg/kg): 185 mmHg
Electrolytes Excreted K^+ ([3]; dose = 50 mg/kg): 214.52 μEq/rat
Electrolytes Excreted Na^+ ([3]; dose = 50 mg/kg): 272.54 μEq/rat
Urine Volume ([3]; dose = 50 mg/kg): 15 ml/rat
in vivo activity as antihypertensive ([3]; result in words): significant in vivo activity
in vivo activity as cardiotonic ([3]; result in words): significant in vivo activity
in vivo activity as diuretic ([3]; result in words): significant in vivo activity
in vivo activity as natriuretic ([3]; result in words): significant in vivo activity
IC50 [2]: 11 µM

c1ccc(CNCc2nccn2Cc2ccccc2)cc1 [1-benzyl-2-benzylaminomethyl imidazole dihydrochloride]
IC50 [2]: 100 µM

Br.Br.Oc1ccc(Cn2ccnc2CNc2ccccc2)cc1 [1-(4-hydroxybenzyl)-2-phenylaminomethyl imidazole dihydrobromide]
Na^+ /K^+ ratio ([3]; dose = 50 mg/kg): 2.927
Heart Rate 1st dose ([3]; dose = 50 mg/kg): 440 beats/min
Systolic Blood Pressure 1st dose ([3]; dose = 50 mg/kg): 181 mmHg
Heart Rate 2nd dose ([3]; dose = 50 mg/kg): 480 beats/min
Systolic Blood Pressure 2nd dose ([3]; dose = 50 mg/kg): 175 mmHg
Electrolytes Excreted K^+ ([3]; dose = 50 mg/kg): 74.27 μEq/rat
Electrolytes Excreted Na^+ ([3]; dose = 50 mg/kg): 217.36 μEq/rat
Urine Volume ([3]; dose = 50 mg/kg): 3 ml/rat
in vivo activity as cardiotonic ([3]; result in words): significant cardiotonic activity
IC50 [2]: > 100 µM

O=C(O)c1ccc(CCCCCl)cn1 [5-(4-chlorobutyl)picolinic acid]
DBH inhibition (DBH [1]): can inhibit DBH

NCCc1ccc(O)c(O)c1 [DA, dopamine]
vasodilator activity [5]: selective vasodilator activity at certain concentrations

COC(=O)[C@H]1[C@H]2C[C@@H]3c4[nH]c5cc(OC)ccc5c4CCN3C[C@H]2C[C@@H](OC(=O)c2cc(OC)c(OC)c(OC)c2)[C@@H]1OC [reserpine]
DBH levels (DBH [4]): lowered DBH levels

CCCCc1ccc(C(N)=O)nc1 [Bupicomide, 5-(n-butyl)picolinamide]
DBH inhibition (DBH [1]): DBH inhibitor
antihypertensive activity [6]: antihypertensive activity

COc1ccc(Cn2ccnc2C(=O)O)cc1 [R = CO2 H.HCl, Y = OCH3, X = H, n = 1, 1-(4-methoxybenzyl)imidazole-2-carboxylic acid hydrochloride]
IC50 [2]: 75 µM

CCCCc1ccc(C(=O)O)nc1 [Fusaric acid]
hepatotoxicity [7]: hepatotoxic

NNCc1ccccc1 [benzylhydrazine]
mode of DBH inhibition (DBH [1]): apparently act as competitive inhibitors

Br.Br.NCc1nccn1Cc1ccc(O)cc1 [R = CH2 NH2.2HBr, Y = OH, X = H, n = 1, 1-(4-hydroxybenzyl)-2-aminomethyl imidazole dihydrobromide]
Na^+ /K^+ ratio ([3]; dose = 25 mg/kg): 2.159
Heart Rate 1st dose ([3]; dose = 25 mg/kg): 420 beats/min
Systolic Blood Pressure 1st dose ([3]; dose = 25 mg/kg): 161 mmHg
Heart Rate 2nd dose ([3]; dose = 25 mg/kg): 440 beats/min
Systolic Blood Pressure 2nd dose ([3]; dose = 25 mg/kg): 158 mmHg
Electrolytes Excreted K^+ ([3]; dose = 25 mg/kg): 103.42 μEq/rat
Electrolytes Excreted Na^+ ([3]; dose = 25 mg/kg): 223.24 μEq/rat
Urine Volume ([3]; dose = 25 mg/kg): 3 ml/rat
in vivo activity as antihypertensive ([3]; result in words): significant antihypertensive activity
IC50 [2]: 35 µM

CC(N)(Cc1ccc(O)c(O)c1)C(=O)O (stereo not drawn) [alpha-methyl-DOPA]
DBH levels (DBH [4]): lowered DBH levels
